# Measured values as given in paper PMC4145316, “Cytotoxic and Apoptosis-Inducing Activity of Triterpene Glycosides from Holothuria scabra and Cucumaria frondosa against HepG2 Cells” (Marine Drugs, 2014).
# Columns and labels:
# HepG2 cells [1] = assay: Apoptosis morphology, acridine orange and Hoechst 33342 staining; type: cell-based, human; details: 2.5 and 2.75 μg/mL for 8 h; AO and Hoechst 33342 staining
# From the text: The induction of apoptosis in cancer cells has emerged as an exciting possibility for the development of selective cancer therapies. Apoptosis is characterized by distinct morphological features such as cell shrinkage, loss of contact with neighboring cells, formation of cytoplastic vacuoles, chromatin condensation, nuclear-membrane blebbing, oligonucleosomal DNA fragmentation, and finally breakdown of the cell into smaller units (apoptotic bodies). To further characterize the anticancer activity of 1, disorganization of the nucleus with chromatin changes in HepG2 cells treated with 1 at the concentration of 2.5 and 2.75 μg/mL for 8 h was characterized using acridine orange (OA) and Hoechst 33342 staining under fluorescence microscope.
# HepG2 cells were seeded at 1 × 10^5 cells/mL into 24-well plates and then incubated at 37 °C in a humidified atmosphere with 5% CO2. After 24 h, the cells were treated with 1 at the final concentrations of 0, 2.5 and 2.75 μg/mL for 8 h. After washed twice with PBS, cells were stained with 100 μL acridine orange (AO) solution (10 μg/mL) or Hoechst 33342 solution (5 μg/mL) for 30 min, and then visualized by fluorescence microscope (Olympus, Tokyo, Japan) with 488 nm stimulation and 500–520 nm emission or 350 nm stimulation and 460 nm emission, respectively.
# [2] = tested on: human liver (HL-7702) cells; assay: MTT cytotoxicity assay, normal HL-7702 cells; type: cell-based; details: for Ratio (HL-7702/HepG2): ratio of IC50 values against HL-7702 and HepG2 cells, selective cytotoxicity
# Experimental: (§1) Human hepatoma (HepG2), human cervical cancer (HeLa), human leukemia (K562) and human liver (HL-7702) cells were obtained by Shanghai Institute of Biochemistry and Cell Biology, and maintained in the logarithmic phase of growth in RPMI-1640 complete medium supplemented with 2 mM L-glutamine (Sigma Chemical Co., Saint Louis, MO, USA), 100 IU/mL penicillin, 100 μg/mL streptomycin and 10% FCS at 37 °C under humidified air with 5% CO2.
# (§2) The effect of compounds 1–13 on the viability of HepG2, HeLa, K562 and HL-7702 cells was determined by MIT assay as described previously. Briefly, the tumor and normal cells were seeded at 1 × 10^4 cells/well in a 96-well microtiter plate and incubated at 37 °C in a humidified atmosphere with 5% CO2. After 24 h, compounds 1–13, the positive drug CDDP or RPMI-1640 medium were added into each well, and the plates were incubated at 37 °C for the indicated time. Each concentration was repeated four wells. 50 μL of MTT solution (2 mg/mL) was added to each well 4 h before incubation end, and incubated further for 4 h. The plates were centrifuged (1400× g, 5 min) and the untransformed MTT was removed carefully by pipetting. To each well, 150 μL of DMSO was added and the absorbance was evaluated in an ELISA reader at 570 nm after 15 min. The inhibitory rates and 50% inhibitory concentrations (IC50) values towards cell viability were calculated by NDST software. Each test was performed in triplicate.
# HepG2 cells [3] = assay: HepG2 cell viability, MTT, 6 h and 12 h; type: cell-based, human
# Experimental: To determine the effects of 1 on the viability of HepG2 cell, the cells were cultured with 1 at different concentrations for 6 h and 12 h, and cell viability was measured using MTT assay.
# Figure 2 Effect of 1 on cell viability of HepG2 cells. HepG2 cells were treated with the various concentrations of 1 for 6 and 12 h, and cell viability was measured using the MTT assay. The values are presented as means ± SD (n = 5).
# as §2
# [4] = tested on: Bcl-2 and Bax mRNA in HepG2 cells; assay: RT-PCR, Bcl-2/Bax mRNA expression ratio; type: cell-based, human; details: time- and concentration-dependent
# From the text: The Bcl-2 family members can alter the permeability of mitochondrial membrane, and release cytochrome c or activate caspase cascade. There are two classes of regulatory proteins in the Bcl-2 family that have opposite effects on apoptosis: The anti-apoptotic members (Bcl-2 and Bcl-XL) protect cells against some forms of apoptosis, whereas the pro-apoptotic members (Bax and Bcl-xS) promote programmed cell death. As decrease of the ratio between anti-apoptotic gene Bcl-2 and pro-apoptotic gene Bax mRNA expression is widely considered as a hallmark of apoptosis, the expression level of Bcl-2 and Bax mRNA in HepG2 cells were first detected.
# Figure 5 Effect of 1 on the ratio of expression level between Bcl-2 and Bax mRNA in HepG2 cells. HepG2 cells were incubated with 1 at the various concentrations for the different time. The mRNA expression levels of β-actin, Bcl-2, and Bax were detected by RT-PCR using specific primers. The values are presented as means ± SD (n = 3). […]
# Total RNA was extracted with TRIzol reagent (Invitrogen, Grand Island, NY, USA) according to the manufacturer’s instructions, and reverse transcription was performed as previously. […] Semi-quantitative RT-PCR was performed using β-actin as an internal control to normalize gene expression for the PCR templates. […] The size of the amplified fragments was determined by comparison with a standard DNA marker.
# [5] = tested on: human hepatoma (HepG2) cells; assay: MTT cytotoxicity assay, HepG2 cells; type: cell-based; details: means ± SD (n = 3)
# Experimental: as §1, §2
# [6] = tested on: human cervical cancer (HeLa) cells; assay: MTT cytotoxicity assay, HeLa cells; type: cell-based; details: means ± SD (n = 3)
# Experimental: as §1, §2
# [7] = tested on: human leukemia (K562) cells; assay: MTT cytotoxicity assay, K562 cells; type: cell-based; details: means ± SD (n = 3)
# Experimental: as §1, §2
compound,measurement,setting,value
"COC1C(O)C(CO)OC(OC2C(O)C(CO)OC(OC3C(C)OC(OC4C(OC5CCC6(C)C7=CC(O)C89C(=O)OC(C)(CCCC(C)C)C8(O)CCC9(C)C7CCC6C5(C)C)OCC(OS(=O)(=O)O)C4O)C(O)C3O)C2O)C1O.[Na+] (centres unmarked) [Echinoside A (1), Echinoside A]",apoptosis in HepG2 cells (morphology),HepG2 cells [1],could induce apoptosis
same,IC50 (μg/mL) HL-7702,"[2]; MTT assay, normal hepatocytes, means ± SD (n = 3)",3.12 ± 0.65 µg/mL
same,Ratio (HL-7702/HepG2),[2],2.08
same,Ratio (HL-7702/HepG2),[2]; listed as 1,more than 2
same,cell viability of HepG2 cells at 2.25 μg/mL,HepG2 cells [3]; 2.25 μg/mL,hardly influenced cell viability
same,cell viability of HepG2 cells at 3 μg/mL,HepG2 cells [3]; 3 μg/mL,completely inhibited
same,effective concentration range for inhibiting survival of HepG2 cells,HepG2 cells [3]; MTT,2.25−3 μg/mL
same,ratio of Bcl-2/Bax mRNA expression,[4],significantly decreased
same,IC50 (μg/mL) HepG2,[5],1.50 ± 0.08 µg/mL
same,IC50 (μg/mL) HeLa,[6],1.25 ± 0.16 µg/mL
same,IC50 (μg/mL) K562,[7],1.61 ± 0.11 µg/mL
